We go through twelve molecules from publication PMC7571155, “Design, Synthesis and Biological Investigation of Flavone Derivatives as Potential Multi-Receptor Atypical Antipsychotics” (Molecules, 2020).

Series [1] concerns MK-801-induced hyperactivity in mice. As to the kind of experiment: MK-801-induced hyperactivity. To be noted: Mus musculus, po, MK-801 0.3 mg/kg sc, read-out: MK-80: MK-801-induced hyperactivity ED50. It counts as in vivo.
Experimental: Apomorphine-Induced Climbing [1-3].
Animals were placed in Plexiglas cages
for evaluating locomotor activity.
5.3 Catalepsy Test [1-3].
Catalepsy was evaluated on a metal
(§1) A mean immobility score of 30 s was used
(§2) as the criterion for the presence of catalepsy.
Series [2] deals with APO-induced climbing in mice. Kind of series: Apomorphine-induced climbing. It counts as in vivo. To be noted: Mus musculus, po, apomorphine 1.0 mg/kg sc.
Experimental: Apomorphine-Induced Climbing [1-3].
Animals were placed in Plexiglas cages
for evaluating locomotor activity.
5.3 Catalepsy Test [1-3].
Catalepsy was evaluated on a metal
as §1, §2
The nature of series [3]: in vivo. To be noted: mouse, po.
Series [4] concerns the target 5-HT2A receptor (Rattus norvegicus, UniProt P14842). Kind of series: 5-HT2A receptor radioligand binding (3H-ketanserin). To be noted: Receptor Affinity Ki ± SEM 5-HT2A.
For series [5], the target named is T1, D3 receptor (Homo sapiens, UniProt P35462).
T1 construct: expressed in transfected cells; host or cells: HEK293/ACTOne
Kind of series: Intrinsic activity, FLIPR calcium assay, HEK293/ACTOne D3. Type of series: cell-based.

In a further series the target is T2, D2L receptor (Homo sapiens, UniProt P14416).
T2 construct: expressed in transfected cells; host or cells: HEK293
As to the kind of experiment: Intrinsic activity, FLIPR calcium assay, HEK293/D2L. It counts as cell-based. To be noted: for inhibition at 10 µM: HEK293, read-out: Inhibition (10 μM, %), D2L, antagonist mode, 10 μM, n = 3.

Another series addresses D2 receptor (Rattus norvegicus, UniProt P61169). As to the kind of experiment: D2 receptor radioligand binding (3H-spiperone). To be noted: for Ki: Receptor Affinity Ki ± SEM D2, rat striatum, 3H-spiperone, mean ± SEM of three experiments; for potency ratio between D2 and 5-HT1A, 5-HT2A: ratio of Ki values.
The target of the next series is α1 receptor. Kind of series: α1 receptor radioligand binding (3H-prazosin). To be noted: rat cerebral cortex, mean ± SEM of three experiments, read-out: Receptor Affinity Ki ± SEM α1.
For series [6], the target named is T3, 5-HT2A receptor (Homo sapiens, UniProt P28223).
T3 construct: expressed in transfected cells; host or cells: HEK293
Kind of series: Intrinsic activity, FLIPR calcium assay, HEK293/5-HT2A. Type of series: cell-based. To be noted: for inhibition at 10 µM: HEK293, read-out: Inhibition (10 μM, %), 5-HT2A, antagonist mode, 10 μM, n = 3.

The target of the next series is T4, 5-HT2C receptor (Rattus norvegicus, UniProt P08909).
T4 sequence (P08909 33-460): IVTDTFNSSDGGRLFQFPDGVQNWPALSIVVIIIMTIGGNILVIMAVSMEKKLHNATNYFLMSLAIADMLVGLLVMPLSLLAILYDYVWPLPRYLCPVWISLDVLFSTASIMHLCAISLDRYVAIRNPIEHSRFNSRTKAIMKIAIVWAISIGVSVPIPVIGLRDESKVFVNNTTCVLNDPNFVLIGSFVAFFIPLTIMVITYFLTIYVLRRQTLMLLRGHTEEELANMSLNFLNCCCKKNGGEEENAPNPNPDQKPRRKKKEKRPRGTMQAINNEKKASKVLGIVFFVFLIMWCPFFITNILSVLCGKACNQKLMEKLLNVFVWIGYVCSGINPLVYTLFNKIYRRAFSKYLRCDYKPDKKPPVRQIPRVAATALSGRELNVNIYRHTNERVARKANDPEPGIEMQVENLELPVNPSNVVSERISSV
Kind of series: 5-HT2C receptor radioligand binding (3H-mesulergine). To be noted: rat brain cortex, mean ± SEM of three experiments, read-out: Receptor Affinity Ki ± SEM 5-HT2C.

The target of series [7] is D3 receptor (Rattus norvegicus, UniProt P19020). As to the kind of experiment: D3 receptor radioligand binding (3H-7-OH-DPAT).
Series [8] in a line: in vivo. To be noted: mouse.
Another series concerns the target T5, 5-HT1A receptor (Homo sapiens, UniProt P08908).
T5 construct: expressed in transfected cells; host or cells: HEK293
T5 sequence (P08908 1-422): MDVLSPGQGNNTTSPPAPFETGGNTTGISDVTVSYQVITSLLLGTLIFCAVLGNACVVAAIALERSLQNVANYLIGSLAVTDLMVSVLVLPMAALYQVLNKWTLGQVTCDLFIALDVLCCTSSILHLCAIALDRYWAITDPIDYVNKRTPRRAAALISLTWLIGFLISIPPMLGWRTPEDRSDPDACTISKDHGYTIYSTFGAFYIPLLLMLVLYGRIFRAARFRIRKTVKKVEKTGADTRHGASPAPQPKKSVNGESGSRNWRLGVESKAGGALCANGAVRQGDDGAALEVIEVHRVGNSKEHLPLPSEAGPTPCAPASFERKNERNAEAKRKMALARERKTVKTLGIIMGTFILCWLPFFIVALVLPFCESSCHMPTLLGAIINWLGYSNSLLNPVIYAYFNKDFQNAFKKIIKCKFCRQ
As to the kind of experiment: Intrinsic activity, FLIPR calcium assay, HEK293/5-HT1A. Type of series: cell-based. To be noted: antagonist mode.

In a further series the target is H1 receptor (Cavia porcellus, UniProt P31389). As to the kind of experiment: H1 receptor radioligand binding (3H-mepyramine). To be noted: guinea pig cerebellum, mean ± SEM of three experiments, read-out: Receptor Affinity Ki ± SEM H1.
Another series has as its target hERG potassium channels (Homo sapiens, UniProt Q12809). As to the kind of experiment: hERG potassium channel block, patch clamp in HEK cells. On the technique in general: The hERG channel carries a current that helps repolarise heart muscle cells.
The mark [9] stands for this setting: rat brain cortex, 3H-ketanserin, mean ± SEM of three experiments.

Where two headings read alike, the source gives them in different places. Bounds are passed on as bounds.

Usually ED50 stands for the dose that gives a 50% effect, or the effect in half of the subjects. By Ki is commonly meant a dissociation constant, usually derived from enzyme kinetics or from competition with a known ligand. The term IC50 denotes the midpoint of a concentration-inhibition curve. As usually defined, the inhibition is how much of the control response was suppressed. As usually defined, the LD50 is the dose at which mortality reaches 50%. A low value points to greater toxicity. Broadly, the melting point is the temperature, or range, at which the solid turns liquid.

T3 sequence (P28223 whole entry): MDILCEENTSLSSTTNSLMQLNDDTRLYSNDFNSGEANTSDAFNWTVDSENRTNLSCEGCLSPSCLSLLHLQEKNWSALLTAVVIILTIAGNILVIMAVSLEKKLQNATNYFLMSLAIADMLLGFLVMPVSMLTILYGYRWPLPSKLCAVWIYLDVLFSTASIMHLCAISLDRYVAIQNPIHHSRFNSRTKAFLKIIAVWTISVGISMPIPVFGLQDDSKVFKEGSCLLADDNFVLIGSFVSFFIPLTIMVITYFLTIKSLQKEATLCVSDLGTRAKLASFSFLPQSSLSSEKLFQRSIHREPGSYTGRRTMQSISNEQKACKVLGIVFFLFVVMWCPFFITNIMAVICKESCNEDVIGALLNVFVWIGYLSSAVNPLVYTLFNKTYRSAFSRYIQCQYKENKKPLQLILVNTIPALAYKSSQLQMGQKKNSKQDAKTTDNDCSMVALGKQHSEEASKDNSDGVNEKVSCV
Chain of D3 receptor (Rattus norvegicus, UniProt P19020) (P19020 whole entry): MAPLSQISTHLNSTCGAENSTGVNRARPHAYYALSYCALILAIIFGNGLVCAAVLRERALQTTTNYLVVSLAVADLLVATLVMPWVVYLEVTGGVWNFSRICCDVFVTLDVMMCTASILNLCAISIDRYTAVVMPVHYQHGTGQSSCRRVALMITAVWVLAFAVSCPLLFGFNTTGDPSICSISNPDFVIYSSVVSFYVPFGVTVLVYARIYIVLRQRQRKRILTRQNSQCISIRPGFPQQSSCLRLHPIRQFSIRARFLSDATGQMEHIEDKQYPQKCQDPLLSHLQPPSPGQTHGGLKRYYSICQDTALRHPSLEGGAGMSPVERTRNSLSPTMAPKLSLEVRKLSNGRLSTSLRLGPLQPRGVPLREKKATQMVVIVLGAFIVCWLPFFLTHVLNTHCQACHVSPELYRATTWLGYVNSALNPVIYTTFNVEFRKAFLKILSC
Chain of D2 receptor (P61169 whole entry): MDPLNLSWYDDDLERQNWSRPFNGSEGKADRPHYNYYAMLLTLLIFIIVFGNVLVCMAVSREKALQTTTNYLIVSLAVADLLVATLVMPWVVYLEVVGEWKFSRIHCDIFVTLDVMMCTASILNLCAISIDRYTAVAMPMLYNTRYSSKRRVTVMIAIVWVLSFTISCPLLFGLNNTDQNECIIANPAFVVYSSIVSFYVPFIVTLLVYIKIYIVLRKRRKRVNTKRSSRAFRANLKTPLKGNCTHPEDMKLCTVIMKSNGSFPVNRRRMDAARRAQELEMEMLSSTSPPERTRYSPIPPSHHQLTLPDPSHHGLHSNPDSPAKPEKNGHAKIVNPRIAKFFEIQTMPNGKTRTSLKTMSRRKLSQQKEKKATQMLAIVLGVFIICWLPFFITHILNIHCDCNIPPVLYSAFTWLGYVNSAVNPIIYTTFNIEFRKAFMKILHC
Chain of hERG potassium channels (Q12809 whole entry): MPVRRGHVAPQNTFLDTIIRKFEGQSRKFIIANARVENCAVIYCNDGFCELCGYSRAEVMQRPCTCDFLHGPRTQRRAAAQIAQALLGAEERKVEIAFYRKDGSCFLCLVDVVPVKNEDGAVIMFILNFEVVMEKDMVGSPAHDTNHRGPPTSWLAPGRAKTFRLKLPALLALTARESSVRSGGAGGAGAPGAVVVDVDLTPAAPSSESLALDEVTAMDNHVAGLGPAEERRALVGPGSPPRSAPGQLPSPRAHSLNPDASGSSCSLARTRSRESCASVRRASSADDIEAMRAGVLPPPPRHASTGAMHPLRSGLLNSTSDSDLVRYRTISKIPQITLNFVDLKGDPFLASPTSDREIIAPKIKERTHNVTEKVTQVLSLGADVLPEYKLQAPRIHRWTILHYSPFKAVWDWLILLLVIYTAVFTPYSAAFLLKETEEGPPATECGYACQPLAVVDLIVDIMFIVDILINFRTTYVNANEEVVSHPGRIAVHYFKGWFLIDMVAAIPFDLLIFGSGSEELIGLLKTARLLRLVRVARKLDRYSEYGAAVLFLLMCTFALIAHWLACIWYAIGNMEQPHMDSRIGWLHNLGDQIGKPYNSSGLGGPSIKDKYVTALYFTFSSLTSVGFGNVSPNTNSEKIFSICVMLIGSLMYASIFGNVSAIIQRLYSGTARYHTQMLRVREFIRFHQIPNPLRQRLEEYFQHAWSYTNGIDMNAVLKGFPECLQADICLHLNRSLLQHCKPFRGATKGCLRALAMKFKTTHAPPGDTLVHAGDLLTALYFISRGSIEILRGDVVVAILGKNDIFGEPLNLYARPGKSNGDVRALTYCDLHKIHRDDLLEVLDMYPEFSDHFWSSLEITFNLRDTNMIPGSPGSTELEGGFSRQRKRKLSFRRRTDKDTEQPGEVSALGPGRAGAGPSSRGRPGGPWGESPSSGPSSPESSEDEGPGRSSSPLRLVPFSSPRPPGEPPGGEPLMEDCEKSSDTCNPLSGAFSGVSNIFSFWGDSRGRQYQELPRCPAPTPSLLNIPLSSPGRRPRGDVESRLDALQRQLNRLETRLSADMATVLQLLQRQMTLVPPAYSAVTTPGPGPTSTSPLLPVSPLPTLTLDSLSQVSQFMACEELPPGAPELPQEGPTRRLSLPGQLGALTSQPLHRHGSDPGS
Chain of H1 receptor (P31389 whole entry): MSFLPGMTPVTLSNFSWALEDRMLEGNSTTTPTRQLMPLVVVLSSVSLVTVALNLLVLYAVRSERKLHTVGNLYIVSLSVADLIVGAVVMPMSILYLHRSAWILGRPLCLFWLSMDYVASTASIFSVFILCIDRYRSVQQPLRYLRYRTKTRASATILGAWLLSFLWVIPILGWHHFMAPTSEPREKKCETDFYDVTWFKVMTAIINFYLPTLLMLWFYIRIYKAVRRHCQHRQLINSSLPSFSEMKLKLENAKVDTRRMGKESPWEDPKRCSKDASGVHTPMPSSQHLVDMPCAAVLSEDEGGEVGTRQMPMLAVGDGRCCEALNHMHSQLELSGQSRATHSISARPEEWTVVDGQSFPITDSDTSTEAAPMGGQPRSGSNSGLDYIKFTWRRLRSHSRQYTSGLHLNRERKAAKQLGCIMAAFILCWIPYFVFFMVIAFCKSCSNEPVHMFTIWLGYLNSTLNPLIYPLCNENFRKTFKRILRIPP
T2 sequence (P14416 whole entry): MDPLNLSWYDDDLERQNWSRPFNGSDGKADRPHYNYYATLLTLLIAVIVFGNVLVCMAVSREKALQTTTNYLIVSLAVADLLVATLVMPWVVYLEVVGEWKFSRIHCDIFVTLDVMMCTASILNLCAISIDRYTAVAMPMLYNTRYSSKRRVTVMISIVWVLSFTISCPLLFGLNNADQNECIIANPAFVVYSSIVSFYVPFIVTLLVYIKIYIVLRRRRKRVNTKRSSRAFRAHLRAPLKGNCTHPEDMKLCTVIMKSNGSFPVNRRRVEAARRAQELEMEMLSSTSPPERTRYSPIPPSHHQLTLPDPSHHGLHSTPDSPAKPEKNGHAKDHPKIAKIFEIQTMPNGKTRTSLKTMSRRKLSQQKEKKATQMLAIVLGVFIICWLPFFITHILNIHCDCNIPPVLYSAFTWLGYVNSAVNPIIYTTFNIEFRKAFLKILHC
Chain of 5-HT2A receptor (Rattus norvegicus, UniProt P14842) (P14842 whole entry): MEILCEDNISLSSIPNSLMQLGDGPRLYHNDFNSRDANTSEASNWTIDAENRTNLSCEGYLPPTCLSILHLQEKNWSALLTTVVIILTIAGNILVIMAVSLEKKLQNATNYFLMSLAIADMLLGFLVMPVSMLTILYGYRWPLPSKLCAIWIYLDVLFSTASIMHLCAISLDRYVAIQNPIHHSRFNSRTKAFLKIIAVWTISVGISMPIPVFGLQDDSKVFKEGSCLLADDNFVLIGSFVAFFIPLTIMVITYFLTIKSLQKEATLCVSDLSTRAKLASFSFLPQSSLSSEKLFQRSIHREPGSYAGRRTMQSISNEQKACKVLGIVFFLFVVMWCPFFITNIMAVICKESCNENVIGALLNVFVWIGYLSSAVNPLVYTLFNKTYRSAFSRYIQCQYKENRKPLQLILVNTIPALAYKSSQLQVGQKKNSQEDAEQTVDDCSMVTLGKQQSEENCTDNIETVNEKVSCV
T1 sequence (P35462 whole entry): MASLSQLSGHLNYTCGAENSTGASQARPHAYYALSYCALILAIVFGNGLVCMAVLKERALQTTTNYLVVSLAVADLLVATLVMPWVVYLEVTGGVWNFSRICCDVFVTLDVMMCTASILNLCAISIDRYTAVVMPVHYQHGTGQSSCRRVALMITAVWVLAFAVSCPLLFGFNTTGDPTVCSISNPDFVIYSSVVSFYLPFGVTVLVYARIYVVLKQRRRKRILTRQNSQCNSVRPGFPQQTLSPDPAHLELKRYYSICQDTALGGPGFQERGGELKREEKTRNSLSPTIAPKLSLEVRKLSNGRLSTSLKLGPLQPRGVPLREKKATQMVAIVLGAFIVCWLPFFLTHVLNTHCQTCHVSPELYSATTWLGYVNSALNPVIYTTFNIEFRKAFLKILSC

With `CN1CCN(C2=Nc3cc(Cl)ccc3Nc3ccccc32)CC1` [Clozapine, reference compound], the ED50 in series [1] turned out to be 2.28 mg/kg; in series [2] it was 17.9 mg/kg; in the series “in vivo [3]”, 50 mg/kg.

In the case of `CC1(C)CC(=O)c2ccc(OCCCCN3CCC(c4noc5cc(F)ccc45)CC3)cc2O1` [Compound 6j, 7-(4-(4-(6-Fluorobenzo[d]isoxazol-3-yl)piperidin-1-yl)butoxy)-2,2-dimethylchroman-4-one], the Ki is 3.2 ± 0.4 nM on 5-HT2A receptor [4]; 12.1 ± 1.5 nM on D2 receptor; 237 ± 86.4 nM at α1 receptor; 566 ± 75.4 nM on 5-HT2C receptor; 25.4 ± 3.1 nM on D3 receptor [7]; 939 ± 101 nM at H1 receptor. The IC50 turned out to be 31.5 nM at D3 receptor [5]; 8.9 nM on D2L receptor; 195 nM on 5-HT2A receptor [6]; 201 nM at 5-HT1A receptor (5-HT1A); 3770 ± 298 nM on hERG potassium channels. The inhibition at 10 µM at D3 receptor [5] (HEK293, read-out: Inhibition (10 μM, %), D3, antagonist mode, 10 μM, n = 3) is above 90%; on D2L receptor it was above 90%; on 5-HT2A receptor [6], above 90%; on 5-HT1A receptor (HEK293, 5-HT1A, 10 μM, n = 3), above 90%. For the same molecule, the ED50 in series [1] was 0.16 mg/kg; in series [2] it was 0.19 mg/kg; in “in vivo [3]” (Kun Ming (KM)), 58.4 mg/kg; in “in vivo [3]”, 56.8 mg/kg. In the series “in vivo [8]”, this molecule had an LD50 at 24 h above 2000 mg/kg.

In turn, `O=C1CC2(CCCC2)Oc2cc(OCCCCN3CCC(c4noc5cc(F)ccc45)CC3)ccc21` [Compound 9d, 7-(4-(4-(6-Fluorobenzo[d]isoxazol-3-yl)piperidin-1-yl)butoxy)spiro[chromane-2,1′-cyclopentan]-4-one] came in with a melting point of 103 to 105 °C. The affinity at 5-HT2A receptor [4] (setting [9]), expressed as Ki, was 8.5 ± 0.7 nM. In addition, on D2 receptor, the affinity, expressed as Ki, was 15.7 ± 1.9 nM; the “potency ratio between D2 and 5-HT1A, 5-HT2A” value is recorded as “less than 5”. In addition, at α1 receptor, the Ki was determined as 162 ± 57.1 nM. In addition, the Ki at 5-HT2C receptor worked out at 426 ± 47.8 nM. Also, the affinity at D3 receptor [7] corresponds to a Ki of 42.6 ± 5.3 nM. On H1 receptor, the Ki came out at 784 ± 98.3 nM. The midpoint of inhibition against hERG potassium channels, the IC50, lay at 3380 ± 352 nM.

As to `O=C1CC2(CCCCC2)Oc2cc(OCCCN3CCC(c4noc5cc(F)ccc45)CC3)ccc21` [Compound 9g, 7-(3-(4-(6-Fluorobenzo[d]isoxazol-3-yl)piperidin-1-yl)propoxy)spiro[chromane-2,1′-cyclohexan]-4-one], the melting point was 96 to 98 °C. This molecule yielded an inhibitory constant (Ki) at 5-HT2A receptor [4] (setting [9]) of 9.1 ± 1.1 nM. Moreover, at D2 receptor, the affinity corresponds to a Ki of 18.4 ± 1.8 nM; the “potency ratio between D2 and 5-HT1A, 5-HT2A” value is “less than 5”. At α1 receptor, the Ki is 138 ± 39.8 nM. Also, the Ki on 5-HT2C receptor worked out at 401 ± 55.6 nM. The molecule further had a Ki on D3 receptor [7] of 35.2 ± 2.8 nM. For the same molecule, the inhibition constant (Ki) on H1 receptor was determined as 909 ± 78.5 nM. The same molecule returned an IC50 on hERG potassium channels of 3020 ± 291 nM.

Regarding `O=C1CC2(CCCCC2)Oc2cc(OCCCCN3CCC(c4noc5cc(F)ccc45)CC3)ccc21` [Compound 9h, 7-(4-(4-(6-Fluorobenzo[d]isoxazol-3-yl)piperidin-1-yl)butoxy)spiro[chromane-2,1′-cyclohexan]-4-one], the inhibition constant (Ki) is 7.3 ± 0.4 nM at 5-HT2A receptor [4] (setting [9]); 17 ± 2.3 nM at D2 receptor; 102 ± 50.6 nM at α1 receptor; 528 ± 68.5 nM on 5-HT2C receptor; 38.6 ± 3.7 nM on D3 receptor [7]; 819 ± 91.8 nM at H1 receptor. At hERG potassium channels, the half-inhibitory concentration (IC50) is 3980 ± 411 nM.

Turning to `Cc1cc2c(cc1OCCCCN1CCC(c3noc4cc(F)ccc34)CC1)OCCC2=O` [Compound 13c, 7-(4-(4-(6-Fluorobenzo[d]isoxazol-3-yl)piperidin-1-yl)butoxy)-6-methylchroman-4-one], the melting point is 91 to 93 °C. The molecule further had a Ki on 5-HT2A receptor [4] (setting [9]) of 15.9 ± 2.3 nM. In addition, the affinity at D2 receptor, expressed as Ki, was 25.8 ± 3.9 nM.

As for `CC1CC(=O)c2ccc(OCCCCN3CCC(c4noc5cc(F)ccc45)CC3)cc2O1` (stereo not shown) [Compound 16a, 7-(4-(4-(6-Fluorobenzo[d]isoxazol-3-yl)piperidin-1-yl)butoxy)-2-methylchroman-4–one], the melting point was 95 to 97 °C. In addition, the affinity on 5-HT2A receptor [4] (setting [9]) corresponds to a Ki of 7.9 ± 0.5 nM. This molecule also displayed a Ki at D2 receptor of 19.7 ± 2.7 nM.

Take `CC1CC(=O)c2ccc(OCCCCN3CCC(c4noc5cc(F)ccc45)CC3)c(Cl)c2O1` (stereo not shown) [Compound 16b, 8-Chloro-7-(4-(4-(6-fluorobenzo[d]isoxazol-3-yl)piperidin-1-yl)butoxy)-2-methylchroman-4-one]: the melting point lay in the range of 99 to 101 °C. The Ki at 5-HT2A receptor [4] (setting [9]) worked out at 8.1 ± 1.1 nM. The inhibition constant Ki at D2 receptor came out at 21.4 ± 2.4 nM.

In turn, `CC1Oc2cc(OCCCCN3CCC(c4noc5cc(F)ccc45)CC3)ccc2C(=O)C1C` (stereo not shown) [Compound 21, 7-(4-(4-(6-fluorobenzo[d]isoxazol-3-yl)piperidin-1-yl)butoxy)-2,3-dimethylchroman-4-one] gave a melting point of 82 to 84 °C. The molecule further showed a Ki at 5-HT2A receptor [4] (setting [9]) of 2.4 ± 1.9 nM. Moreover, the Ki on D2 receptor was 28.4 ± 3.2 nM.

As to `CN1CCc2cc(Cl)c(O)cc2[C@@H](c2ccccc2)C1` [SCH23390], the IC50 at D2L receptor (D2L, antagonist mode, read-out: IC50) turned out to be 31.6 nM. For the same molecule, at D2L receptor, the inhibition at 10 µM worked out at 99.1 ± 3.2%.

As for `NCCc1ccc(O)c(O)c1` [dopamine], the “Activation (10 μM, %)” value at D2L receptor (D2L, agonist mode, 10 μM, n = 3) is given as 101.3 ± 5.3%.

Consider `O=C(c1ccc(F)cc1)C1CCN(CCn2c(=O)[nH]c3ccccc3c2=O)CC1` [ketanserin, reference compound], for which the inhibition at 10 µM on 5-HT2A receptor [6] was 98.2 ± 2.6%.
